# Reference: US20230242591A1, “REGULATORY T CELL EPITOPES AND D[…]-COV-2 ANTIGENS” (EPIVAX, INC., priority 2020, published 2023)
# Tested on: CD4+ effector memory T cells
# Assay type: cell-based, human
sequence,measurement,value
PSFYVYSRVKNLNSSRVPDLLV (Severe acute respiratory syndrome coronavirus 2) [SEQ ID NO: 7],suppression of proliferation and activation of CD4+ effector T cells,Suppressed Proliferation and Activation
